{"source": "patent US20130156832A1", "about": "“EUDERMIC COMPOSITIONS” (Miso S.r.I., priority 2010, published 2013)", "experiment": "Saturation concentration (solubility) of salicylic acid in vehicle A (water)", "format": "physicochemical", "data": [{"smiles": "O=C(O)c1ccccc1O", "note": "[salicylic acid]", "values": [{"measurement": "saturation concentration (Cs, SA-A)", "result": 2, "unit": "mg/mL"}]}]}
